This passage reports IC50, Activity and inhibition results from ChEMBL document CHEMBL5543153, “Discovery of a Potent Dual Son of Sevenless 1 (SOS1) and Epidermal Growth Factor Receptor (EGFR) Inhibitor for the Treatment of Prostate Cancer” (J Med Chem, 2024).

Molecules are shown by their SMILES. The source made the active and inactive calls. The rule behind the calls is not given here.

A word on the IC50: it is the concentration that gives 50% inhibition.

The target of series [1] is T1, Son of sevenless homolog 1 (Homo sapiens, UniProt Q07889).
T1 sequence (Q07889 whole entry): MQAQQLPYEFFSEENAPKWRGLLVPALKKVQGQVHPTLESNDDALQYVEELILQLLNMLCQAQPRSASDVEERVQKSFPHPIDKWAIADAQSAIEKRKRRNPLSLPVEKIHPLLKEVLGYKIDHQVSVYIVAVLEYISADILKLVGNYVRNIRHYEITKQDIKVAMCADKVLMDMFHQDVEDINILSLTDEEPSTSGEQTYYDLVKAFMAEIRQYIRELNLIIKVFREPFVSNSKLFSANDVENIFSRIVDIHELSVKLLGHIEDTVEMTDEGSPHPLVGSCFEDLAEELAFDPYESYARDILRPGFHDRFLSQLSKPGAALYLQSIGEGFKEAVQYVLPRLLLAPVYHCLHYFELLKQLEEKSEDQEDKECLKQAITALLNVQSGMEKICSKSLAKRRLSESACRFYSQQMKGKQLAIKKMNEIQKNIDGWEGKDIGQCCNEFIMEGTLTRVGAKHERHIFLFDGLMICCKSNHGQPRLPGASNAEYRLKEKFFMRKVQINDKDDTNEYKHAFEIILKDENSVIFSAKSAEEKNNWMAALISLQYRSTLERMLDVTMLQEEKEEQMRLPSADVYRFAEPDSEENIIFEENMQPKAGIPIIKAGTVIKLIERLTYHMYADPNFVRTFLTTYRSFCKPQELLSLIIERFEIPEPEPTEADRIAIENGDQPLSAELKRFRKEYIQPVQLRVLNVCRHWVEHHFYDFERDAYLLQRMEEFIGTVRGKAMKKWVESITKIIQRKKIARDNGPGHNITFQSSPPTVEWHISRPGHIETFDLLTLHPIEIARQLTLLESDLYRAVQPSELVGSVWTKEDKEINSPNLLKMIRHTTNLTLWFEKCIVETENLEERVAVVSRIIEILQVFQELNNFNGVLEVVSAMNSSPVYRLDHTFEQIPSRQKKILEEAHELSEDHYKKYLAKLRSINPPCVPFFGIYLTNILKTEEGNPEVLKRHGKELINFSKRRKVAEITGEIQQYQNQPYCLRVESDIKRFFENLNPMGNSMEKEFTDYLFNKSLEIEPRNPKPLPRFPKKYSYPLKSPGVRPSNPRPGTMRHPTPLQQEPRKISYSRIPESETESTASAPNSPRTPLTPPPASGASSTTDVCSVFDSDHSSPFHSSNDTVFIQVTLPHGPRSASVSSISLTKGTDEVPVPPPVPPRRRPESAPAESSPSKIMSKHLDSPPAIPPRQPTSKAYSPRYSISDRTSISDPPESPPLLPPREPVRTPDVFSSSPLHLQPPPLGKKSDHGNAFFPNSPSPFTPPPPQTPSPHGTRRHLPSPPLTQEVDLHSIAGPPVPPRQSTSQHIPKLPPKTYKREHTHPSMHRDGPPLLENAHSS
The experiment in a line: Inhibition of human recombinant SOS1.

Series [2] deals with HUVEC. The experiment in a line: Antiangiogenic activity in HUVEC cells assessed as reduction in tube segments at 0.5 to 12.5 uM incubated for 8 hrs by matrigel based microscopic analysis. The conditions noted are these: Homo sapiens, dose 0.5-12.5 µM. The class given is functional, cell-based.
Series [3] deals with T2, Son of sevenless homolog 1 (Homo sapiens) (UniProt Q07889).
T2 sequence (whole entry): T1 sequence (Q07889 whole entry)
As to the kind of experiment: Inhibition of SOS1 in human PC-3 cells assessed as downregulation of AKT phosphorylation at 12.5 uM incubated for 15 mins by Western blotting analysis. Type of series: cell-based.

Series [4] has as its system HUVEC. The experiment in a line: Inhibition of cell migration in HUVEC cells assessed as reduction in invasion index at 0.5 to 12.5 uM measured after 48 hrs by crystal violet staining based transwell invasion assay. Type of series: functional. The following applies: Homo sapiens, dose 0.5-12.5 µM.
The subject of series [5] is PC-3. As to the kind of experiment: Induction of cell cycle arrest in human PC-3 cells assessed as accumulation of cells at G2 phase at 0.5 uM by PI staining based flow cytometry (reference value: 7.75%). Type of series: functional. On the technique in general: Flow cytometry measures light scatter and fluorescence of single cells or particles in a stream.
Series [6] relates to PC-3. The experiment in a line: Antiproliferative activity against human PC-3 cells transfected with control shRNA assessed as inhibition of cell growth incubated for 72 hrs by MTT assay. Type of series: functional, cell-based. The conditions noted are these: PC-3, 72 h.
Series [7] is described as follows: Toxicity in BALB/c mouse xenografted with human PC-3 cells assessed as liver pathological change at 20 mg/kg,ip administrated once every 4 days for 24 days by hematoxylin and eosin staining based analysis. The class given is organism-based. The conditions noted are these: in vivo, 576 h, time 24 day.
In series [8] the test system is HUVEC. The experiment in a line: Inhibition of cell migration in HUVEC cells at 0.5 to 12.5 uM measured after 48 hrs by crystal violet staining based transwell invasion assay. The following applies: Homo sapiens, dose 0.5-12.5 µM. Type of series: functional.
Series [9] relates to PC-3. The experiment in a line: Induction of cell cycle arrest in human PC-3 cells assessed as accumulation of cells at S phase at 2.5 uM by PI staining based flow cytometry (reference value: 16.58%). The class given is functional.
The test system of series [10] is PC-3. As to the kind of experiment: Induction of apoptosis in human PC-3 cells assessed as upregulation of cleaved caspase-3 expression by Western blotting analysis. The class given is functional, cell-based. In general terms: A western blot detects proteins with antibodies after separation by electrophoresis.
The nature of series [11]: Toxicity in BALB/c mouse xenografted with human PC-3 cells assessed as change in creatinine level at 20 mg/kg,ip administrated once every 4 days for 24 days by automatic biochemical analyzer. The class given is organism-based. The conditions noted are these: in vivo, 576 h, time 24 day. For orientation: In xenograft studies the graft and the host belong to different species.

The subject of series [12] is HUVEC. The experiment in a line: Antiangiogenic activity in HUVEC cells assessed as reduction of mean mesh at 0.5 to 12.5 uM incubated for 8 hrs by matrigel based microscopic analysis. Type of series: functional, cell-based. The conditions noted are these: Homo sapiens, dose 0.5-12.5 µM.
The nature of series [13]: Toxicity in BALB/c mouse xenografted with human PC-3 cells assessed as liver pathological change at 5 mg/kg,ip administrated once every 4 days for 24 days by hematoxylin and eosin staining based analysis. The class given is organism-based. The conditions noted are these: in vivo, 576 h, time 24 day.
In series [14] the test system is PC-3. As to the kind of experiment: Induction of cell cycle arrest in human PC-3 cells assessed as accumulation of cells at G2 phase at 2.5 uM by PI staining based flow cytometry (reference value: 7.75%). Type of series: functional.
The nature of series [15]: Toxicity in BALB/c mouse xenografted with human PC-3 cells assessed as spleen pathological change at 5 mg/kg,ip administrated once every 4 days for 24 days by hematoxylin and eosin staining based analysis. The class given is organism-based. The following applies: in vivo, 576 h, time 24 day.
Series [16] concerns PC-3. The experiment in a line: Antitumor activity against human PC-3 cells xenografted in BALB/c mouse assessed as reduction in tumor volume at 5 mg/kg,ip administrated once every 4 days for 24 days. Type of series: functional, organism-based. The following applies: time 24.0 day.
For series [17], the system named is DLD-1. As to the kind of experiment: Antiproliferative activity against human DLD-1 cells assessed as inhibition of cell growth incubated for 72 hrs by MTT assay. Type of series: functional, cell-based.
For series [18], the system named is HUVEC. As to the kind of experiment: Antiangiogenic activity in HUVEC cells assessed as reduction in tube length at 0.5 to 12.5 uM incubated for 8 hrs by matrigel based microscopic analysis. Type of series: functional, cell-based. The following applies: Homo sapiens, dose 0.5-12.5 µM.
The subject of series [19] is PC-3. The experiment in a line: Induction of cell cycle arrest in human PC-3 cells assessed as accumulation of cells at S phase at 0.5 uM by PI staining based flow cytometry (reference value: 16.58%). Type of series: functional.
The nature of series [20]: Toxicity in BALB/c mouse xenografted with human PC-3 cells assessed as kidney pathological change at 5 mg/kg,ip administrated once every 4 days for 24 days by hematoxylin and eosin staining based analysis. The class given is organism-based. The following applies: in vivo, 576 h, time 24 day.
A short description of series [21]: Toxicity in BALB/c mouse xenografted with human PC-3 cells assessed as change in body weight at 20 mg/kg,ip administrated once every 4 days for 24 days. The class given is organism-based. The conditions noted are these: in vivo, 576 h, time 24 day.
Series [22] addresses T2, Son of sevenless homolog 1 (Homo sapiens). As to the kind of experiment: Inhibition of SOS1 in human PC-3 cells assessed as downregulation of ERK phosphorylation at 0.5 uM incubated for 15 mins by Western blotting analysis. Type of series: cell-based.

As for `COc1cc2ncnc(N[C@H](C)c3cccc(F)c3)c2cc1OC1CCOCC1`, the half-maximal inhibitory concentration (IC50) came out at 42.1 nM in series [1] and 430 nM in series [6]. For the same compound, the result in series [2], in series [12], in series [16], in series [17] and in series [18] was Active. In addition, the inhibition result in series [3], in series [4], in series [8] and in series [22] was “Active” each time. Moreover, the Activity in series [5] was 9.71%; in series [7], “Toxic”; in [9] it was 5.5%; in series [10], “Dose-Dependent Effect”; in [11], “Non-Toxic”; in series [13], “Toxic”. Besides, the Activity in [14] was 12.65%; in series [15], “Toxic”; in series [19], 10.84%; in series [20], “Toxic”; in series [21] it was “Toxic”.
